Our source for the IC50 values is US9073929B2, “Aldosterone synthase inhibitors” (ElexoPharm GmbH, priority 2011, dated 2015).

What all share (type): cell-based
Assay [1] concerns the target T1, human CYP11B2 (Homo sapiens, UniProt P19099).
T1 construct: expressed in transfected cells; host or cells: V79 cells (clone V79-hCYP11B2-CLE9)
T1 sequence (P19099 25-503): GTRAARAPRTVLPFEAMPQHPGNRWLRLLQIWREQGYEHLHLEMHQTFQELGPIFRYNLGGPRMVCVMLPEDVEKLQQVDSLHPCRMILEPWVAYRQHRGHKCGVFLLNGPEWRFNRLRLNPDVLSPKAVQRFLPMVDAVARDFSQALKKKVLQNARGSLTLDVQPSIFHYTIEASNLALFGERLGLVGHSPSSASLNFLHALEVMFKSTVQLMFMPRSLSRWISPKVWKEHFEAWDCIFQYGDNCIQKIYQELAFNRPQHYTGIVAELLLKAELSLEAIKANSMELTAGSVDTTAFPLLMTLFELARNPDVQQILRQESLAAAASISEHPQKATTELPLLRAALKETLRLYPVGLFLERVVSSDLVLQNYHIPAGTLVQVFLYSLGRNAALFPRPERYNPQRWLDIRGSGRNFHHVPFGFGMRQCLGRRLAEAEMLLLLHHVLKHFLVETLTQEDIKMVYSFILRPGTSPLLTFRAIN
Description: V79MZh11B2 cell assay, [3H]-deoxycorticosterone, HPLC radioflow detection. The conditions noted are these: V79MZh11B2 cells, 100 nM deoxycorticosterone, 50 min, read-out: V79 Human CYP11B2 IC50. How it is done:
(§1) Compounds of the Examples 157-170 were assayed for V79-Human-CYP11B2 and V79-Human-CYP11B1 by modifying the protocol described in J. Steroid Biochem. Mol. Biol. 81; 173-179 (2002). V79MZh11B1 and V79MZh11B2 cells (8×10^5 cells/well) were grown on 24-well culture plates until confluence. Before testing, the DMEM culture medium was removed and 450 μl of fresh DMEM containing the inhibitor was added to each well. After a preincubation step of 60 min at 37° C., the reaction was started by the addition of 50 μl of DMEM in which the substrate deoxycorticosterone (containing 0.15 μCi of [1,2-3H]-deoxycorticosterone in ethanol, final test concentration 100 nM) was dissolved. Incubation times were 25 min for V79MZh11B1 and 50 min for V79MZh11B2 cells at 37° C., respectively. The enzyme reactions were stopped by extracting the supernatant with ethyl acetate. Samples were centrifuged (10.000 g, 5 min) and the solvent was pipetted into fresh cups. After evaporation of the solvent, the steroids were redissolved in 40 μl of […] and analyzed by HPLC. Detection and quantification of the steroids were performed using a radioflow detector. […] The inhibitor concentrations were all in the linear range of the dose-response-curves, so that the coefficients of correlation were at least 0.95 for each determination. The final IC50 value was estimated as the average of three or four independent IC50 values and a selectivity factor corresponding to the ratio between the IC50 values of CYP11B1 and CYP11B2 was calculated for each substance.

For assay [2], the target named is T2, human CYP11B1 (Homo sapiens, UniProt P15538).
T2 construct: expressed in transfected cells; host or cells: V79MZh11B1 cells
T2 sequence (P15538 25-503): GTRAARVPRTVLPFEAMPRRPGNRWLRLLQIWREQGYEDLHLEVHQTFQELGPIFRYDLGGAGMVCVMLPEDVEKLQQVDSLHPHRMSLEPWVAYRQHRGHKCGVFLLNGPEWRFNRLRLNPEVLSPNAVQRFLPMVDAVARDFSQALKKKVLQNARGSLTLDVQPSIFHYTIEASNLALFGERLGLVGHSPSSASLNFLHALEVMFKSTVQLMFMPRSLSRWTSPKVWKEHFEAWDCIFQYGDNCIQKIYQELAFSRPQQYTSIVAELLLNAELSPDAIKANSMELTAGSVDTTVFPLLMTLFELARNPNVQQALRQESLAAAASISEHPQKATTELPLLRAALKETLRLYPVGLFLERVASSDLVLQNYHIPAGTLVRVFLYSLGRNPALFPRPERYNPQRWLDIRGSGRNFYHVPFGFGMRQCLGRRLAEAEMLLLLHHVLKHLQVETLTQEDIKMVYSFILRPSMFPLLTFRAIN
Briefly: V79MZh11B1 cell assay, [3H]-deoxycorticosterone, HPLC radioflow detection. To be noted: V79MZh11B1 cells, 100 nM deoxycorticosterone, 25 min, read-out: V79 Human CYP11B1 IC50. How it is done: as §1

Assay [3] addresses T1, human CYP11B2. Briefly: V79-Human-CYP11B2 cell assay, modified protocol (600,000 cells/mL). The conditions noted are these: 0.30 μl inhibitor. How it is done:
(§2) V79 cell lines stably expressing the either the human CYP11B2 or the human CYP11B1 enzyme were generated using a standard transfection protocol. V79 cells were transfected with plasmids pTriEx3-Hygro-hCyp11B2 or pTriEx3-Hygro-hCyp11B1 using Lipofectamine2000 reagent. V79 cells that stably express the human CYP11B2 or human CYP11B1 enzyme were selected for and maintained in DMEM supplemented with 10% FBS and 400 μg/mL hygromycin for ˜2 weeks. Single cell clones were generated by infinite dilution in DMEM supplemented with 10% FBS and 400 μg/mL hygromycin until single colonies were obtained. […] For testing of inhibitors, cells were harvested at 80% confluency with 0.5% Trypsan-EDTA, washed once in PBS, and reconstituted in DMEM+0.1% BSA media at a cell concentration of 400,000 cells/mL. 25 μl of cells were added to a 384 well tissue culture treated plate and mixed with 0.25 μl of inhibitor or DMSO (1% final DMSO concentration) for 1 hour at 37° C., 5% CO2. After pre-incubation with inhibitor, the reaction was initiated by adding 5 μl of substrate (final concentration of 125 nM 11-deoxycorticosterone for the CYP11B2 assay or 250 nM 11-deoxycortisol for the CYP11B1 assay). The reaction was carried out for 3 hours at 37° C., 5% CO2 and was stopped by harvesting the supernatants. The amount of product in the supernatant (aldosterone for CYP11B2 assay and cortisol for the CYP11B1 assay) was measured using HTRF-based assay kit (Aldosterone HTRF-CisBio#64ALDPEB, Cortisol HTRF-CisBio #631DC002-CORT). IC50's for the inhibitor were determined by plotting the amount of product formed against the concentration of inhibitor using sigmoidal dose-response curve (variable slope) fit in GraphPad.
(§3) For the CYP11B2 assay, cells were reconstituted in DMEM+0.1% BSA media at a cell concentration of 600,000 cells/mL and for the CYP11B1 assay cells were reconstituted in DMEM+0.1% BSA media at a cell concentration of 280,000 cells/mL. 25 μl of cells were added to a 384 well tissue culture treated plate and mixed with 0.30 μl of inhibitor or DMSO (1% final DMSO concentration) for 1 hour at 37° C., 5% CO2.

Assay [4] has as its target T2, human CYP11B1. Briefly: V79-Human-CYP11B1 cell assay, modified protocol (280,000 cells/mL). To be noted: 0.30 μl inhibitor. Here is the method:
as §2, §3

The term IC50 denotes the midpoint of a concentration-inhibition curve. As to `Fc1cc(-c2cccnc2)cc2c1-n1cnnc1CC2` [Example 166, 9-fluoro-7-pyridin-3-yl-4,5-dihydro-[1,2,4]triazolo[4,3-a]quinoline], the concentration for half-maximal inhibition (IC50) is 172 nM on human CYP11B2 [1] and 16100 nM at human CYP11B1 [2].

For the compound `Cc1nnc2n1-c1c(F)cc(-c3cccnc3)cc1CC2` [Example 165, 9-fluoro-1-methyl-7-pyridin-3-yl-4,5-dihydro-[1,2,4]triazolo[4,3-a]quinoline], the IC50 at human CYP11B2 [1] was 62.5 nM; at human CYP11B1 [2], 17000 nM.

Regarding `CCc1c(F)cncc1-c1cc(F)c2c(c1)CCc1nnc(C)n1-2` [Example 169, 7-(4-ethyl-5-fluoropyridin-3-yl)-9-fluoro-1-methyl-4,5-dihydro-[1,2,4]triazolo[4,3-a]quinoline], the IC50 at human CYP11B2 [1] came to 11 nM; on human CYP11B1 [2], 3070 nM.

On to `Cc1nnc2n1-c1c(Cl)cc(-c3cnccc3C3CC3)cc1CC2` [Example 96, 9-chloro-7-(4-cyclopropylpyridin-3-yl)-1-methyl-4,5-dihydro-[1,2,4]triazolo[4,3-a]quinoline], for which the 50% inhibitory concentration (IC50) was 48 nM at human CYP11B2 [3] and 6930 nM on human CYP11B1 [4].

In the case of `CC(=O)c1cncc(-c2cc(F)c3c(c2)CCc2nnc(C)n2-3)c1` [Example 160, 1-[5-(9-fluoro-1-methyl-4,5-dihydro-[1,2,4]triazolo[4,3-a]quinolin-7-yl)-pyridin-3-yl]-ethanone], the IC50 at human CYP11B2 [1] is 87.6 nM; on human CYP11B1 [2], 6970 nM.

`Cc1nnc2n1-c1c(F)cc(-c3cncc4ccccc34)cc1CC2` [Example 164, 9-fluoro-7-isoquinolin-4-yl-1-methyl-4,5-dihydro-[1,2,4]triazolo[4,3-a]quinoline]: the IC50 at human CYP11B2 [1] stood at 2.2 nM; on human CYP11B1 [2], 110 nM.

Take “9-chloro-7-(5-chloro-4- methylpyridin-3-yl)-1- methyl-4,5-dihydro- [1,2,4]triazolo[4,3- a]quinoline [Example 93]”: the IC50 against human CYP11B2 [3] turned out to be 6 nM; at human CYP11B1 [4], 765 nM.

`Cc1nnc2n1-c1c(F)cc(-c3cncc(C(C)O)c3)cc1CC2` (centres unmarked) [Example 159, 1-[5-(9-fluoro-1-methyl-4,5-dihydro-[1,2,4]triazolo[4,3-a]quinolin-7-yl)-pyridin-3-yl]-ethanol]: the IC50 amounted to 28.3 nM on human CYP11B2 [1] and 3910 nM at human CYP11B1 [2].

Regarding `Fc1cc2c(cc1-c1cccnc1)CCc1nncn1-2` [Example 168, 8-fluoro-7-pyridin-3-yl-4,5-dihydro-[1,2,4]triazolo[4,3-a]quinoline], the IC50 at human CYP11B2 [1] amounted to 244 nM; at human CYP11B1 [2], 7900 nM.

Take `COc1c(C)cncc1-c1cc2c(cc1F)-n1c(C)nnc1CC2` [Example 122, 8-fluoro-7-(4-methoxy-5-methylpyridin-3-yl)-1-methyl-4,5-dihydro-[1,2,4]triazolo[4,3-a]quinoline]: the IC50 is 32 nM against human CYP11B2 [3] and more than 10000 nM against human CYP11B1 [4].

Regarding `Cc1nnc2n1-c1cc(F)c(-c3cccnc3)cc1CC2` [Example 167, 8-fluoro-1-methyl-7-pyridin-3-yl-4,5-dihydro-[1,2,4]triazolo[4,3-a]quinoline], the half-maximal inhibitory concentration (IC50) on human CYP11B2 [1] was found to be 131 nM; on human CYP11B1 [2], 12600 nM.

Regarding `Cc1nnc2n1-c1c(F)cc(-c3cncc(C(F)(F)F)c3)cc1CC2` [Example 161, 9-fluoro-1-methyl-7-(5-trifluoromethyl-pyridin-3-yl)-4,5-dihydro-[1,2,4]triazolo [4,3-a]quinoline], the half-inhibitory concentration (IC50) on human CYP11B2 [1] was found to be 57.2 nM; at human CYP11B1 [2] it was 3570 nM.

In the case of `CCc1c(F)cncc1-c1cc2c(c(F)c1F)-n1c(C)nnc1CC2` [Example 170, 7-(4-ethyl-5-fluoropyridin-3-yl)-8,9-difluoro-1-methyl-4,5-dihydro-[1,2,4]triazolo[4,3-a]quinoline], the IC50 at human CYP11B2 [1] came to 41 nM; at human CYP11B1 [2], 17300 nM.

`Cc1nnc2n1-c1c(F)cc(-c3cncc(F)c3)cc1CC2` [Example 157, 9-fluoro-7-(5-fluoro-pyridin-3-yl)-1-methyl-4,5-dihydro-[1,2,4]triazolo[4,3-a]quinoline]: the values for the IC50 on human CYP11B2 [1] and at human CYP11B1 [2] were 89.7 nM and 29500 nM, respectively.

Take `Cc1nnc2n1-c1cc(Cl)c(-c3cncc4ccccc34)cc1CC2` [Example 113, 8-chloro-7-(isoquinolin-4-yl)-1-methyl-4,5-dihydro-[1,2,4]triazolo[4,3-a]quinoline]: the IC50 against human CYP11B2 [3] was 17 nM; at human CYP11B1 [4], more than 10000 nM.

On to `COc1cncc(-c2cc(F)c3c(c2)CCc2nnc(C)n2-3)c1` [Example 158, 9-fluoro-7-(5-methoxy-pyridin-3-yl)-1-methyl-4,5-dihydro-[1,2,4]triazolo[4,3-a] quinoline], for which the half-maximal inhibitory concentration (IC50) on human CYP11B2 [1] turned out to be 20.3 nM; on human CYP11B1 [2], 1810 nM.

Turning to `Cc1nnc2n1-c1c(F)cc(-c3cncc(-c4ccccc4)c3)cc1CC2` [Example 162, 9-fluoro-1-methyl-7-(5-phenyl-pyridin-3-yl)-4,5-dihydro-[1,2,4]triazolo[4,3-a]quinoline], the half-inhibitory concentration (IC50) at human CYP11B2 [1] was 7.1 nM; on human CYP11B1 [2] it was 428 nM.

Turning to `Cc1ccncc1-c1cc(F)c2c(c1)CCc1nnc(C)n1-2` [Example 163, 9-fluoro-1-methyl-7-(4-methyl-pyridin-3-yl)-4,5-dihydro-[1,2,4]triazolo[4,3-a]quinoline], the IC50 at human CYP11B2 [1] was 4.2 nM; on human CYP11B1 [2], 1770 nM.

With `CCc1c(F)cncc1-c1cc(Cl)c2c(c1)CCc1nnc(C)n1-2` [Example 80, 9-chloro-7-(4-ethyl-5-fluoropyridin-3-yl)-1-methyl-4,5-dihydro[1,2,4]triazolo-[4,3-a]quinoline], the IC50 against human CYP11B2 [3] stood at 7 nM; on human CYP11B1 [4], 3140 nM.
